Measurements from US10711000B2 (Fronthera U.S. Pharmaceuticals LLC, priority 2018, dated 2020).

What was measured:
[1] = Pharmacokinetics after a single oral dose in SD rats; format: in vivo; details: Sprague-Dawley, rat, plasma, single oral dose in 0.5% methylcellulose; for half-life: read-out: T½ (converted)
Source text: (§1) The pharmacokinetics and pharmacodynamics of test compounds after a single oral dose were investigated in SD rats, Beagle dog and Cynomolgus monkey. SD Rats (200-250 g) were purchased from Beijing Vital River Laboratory Animal Technology Co., Ltd. Male Beagle Dog, 6-9 kg, were purchased from Beijing Mashall. Male Cynomolgus monkeys, 3-5 kg, were purchased from Suzhou Xishan Zhongke Drugs Research and Development Co., Ltd. Following arrival, the animals were acclimated for 7 days in individual cages maintained at ambient temperature, 34 to 68% relative humidity, and 12-h light/dark cycles. Just prior to dose administration the rats were fasted overnight with free access to water. Animals were given 10 mL/kg of formulated compound in 0.5% methylcellulose (MC) by oral gavage, and the animals were fed four hours after dosing. The animals were manually restrained at the designated time points (pre-dose, 0.5, 1, 3, 6, 9, 12, and 24 h post-dose) to collect blood. Approximately 120 μL of blood was collected via orbital sinus into K2EDTA tubes. The blood samples were centrifuged at 5000 rpm for 10 min at 4° C. to obtain plasma samples.
(§2) To determine the compound concentration in the plasma samples, a 10× calibration standard of compound were prepared by serial dilution in DMSO: 20000, 10000, 5000, 2000, 1000, 500, 200, 100, 50, 20, and 10 ng/mL. 3 μL of calibration standard solution was added into 27.0 μL of blank plasma in 1.5-mL microcentrifuge tubes to generate 1× calibration standards. The 30.0 μL of standards or study plasma was mixed with 200 μL of acetonitrile (containing 5 ng/mL verapamil for internal control) in a 1.5-mL microcentrifuge tube. After vertexing for 1 minute and centrifuging at 10000 rpm for 10 min, 180 μL of supernatant was transferred into a 96-well plate and the compound concentration in the plasma was quantitated using LC/MS/MS together with standards. Briefly, 1 μL of the solutions were injected for LC-MS/MS analysis using an Agilent Zorbax C18 column (50×2.1 mm, 3.5 μm) with mobile phase A [5 mM NH4Ac (0.1% FA)] and phase B [Methanol (0.1% FA)]. Mass spectrometer parameters optimization for compound was performed by infusing standard diluted at 1 μg/mL in water/methanol (1/1, v/v) directly in the ionization source at a flow of 10 μL/min. Quantitative data were acquired in multiple reaction monitoring (MRM) positive APCI mode.

[2] = Pharmacokinetics in beagle dogs; format: in vivo; details: male, dog, plasma, po, P.O. (1 mg/kg)
Source text: as §1, §2

[3] = biological target: T1, CYP 1A2 (Homo sapiens, UniProt P05177); experiment: CYP inhibition in human liver microsome; format: in vitro ADME; details: human liver microsomes, substrate phenacetin (10 μM); compounds diluted 1:3 starting at 50 μM; read-out: IC50 in CYP isozyme 1A2
T1 construct: from tissue; host or cells: human liver microsomes
T1 sequence (P05177 1-516): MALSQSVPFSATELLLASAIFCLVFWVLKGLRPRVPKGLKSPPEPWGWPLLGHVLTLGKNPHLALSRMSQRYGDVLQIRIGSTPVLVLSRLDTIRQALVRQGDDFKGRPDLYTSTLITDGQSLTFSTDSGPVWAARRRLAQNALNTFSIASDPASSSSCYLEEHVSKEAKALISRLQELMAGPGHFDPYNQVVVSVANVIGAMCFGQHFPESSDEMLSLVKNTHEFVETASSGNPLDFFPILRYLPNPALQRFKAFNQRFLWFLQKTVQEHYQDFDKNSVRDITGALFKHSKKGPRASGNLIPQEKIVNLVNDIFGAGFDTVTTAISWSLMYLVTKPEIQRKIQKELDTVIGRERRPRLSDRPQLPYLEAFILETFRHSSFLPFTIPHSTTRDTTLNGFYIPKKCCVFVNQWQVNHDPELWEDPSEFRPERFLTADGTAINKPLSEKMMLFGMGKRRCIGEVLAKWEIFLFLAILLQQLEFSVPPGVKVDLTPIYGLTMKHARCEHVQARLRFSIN
Protocol: (§3) Test compounds were evaluated for CYP inhibition using human liver microsomes (HLM). Test compounds were 1:3 serially diluted starting at 50 μM to generate 7 different concentrations. After incubation of diluted test compounds with HLM, a substrate cocktail composed of phenacetin (10 μM), amodiaquine (2 μM), diclofenac (5 μM), s-mephenytoin (30 μM), dextromethorphan (5 μM), and midazolam (2 μM) was added to check the remaining CYP activity for CYP 1A2, 2C8, 2C9, 2C19, 2D6 and 3A4. The CYP activity was measured by detecting the peak area of individual metabolites of know CYP substrates using LC/MS/MS. A percentage of inhibition of CYP was calculated at each final concentration of test compound, through which an IC50 was fitted to represent the inhibition potential.

[4] = biological target: T2, CYP 2C19 (Homo sapiens, UniProt P33261); experiment: CYP inhibition in human liver microsome; format: in vitro ADME; details: human liver microsomes, substrate s-mephenytoin (30 μM); compounds diluted 1:3 starting at 50 μM; read-out: IC50 in CYP isozyme 2C19
T2 construct: from tissue; host or cells: human liver microsomes
T2 sequence (P33261 whole entry): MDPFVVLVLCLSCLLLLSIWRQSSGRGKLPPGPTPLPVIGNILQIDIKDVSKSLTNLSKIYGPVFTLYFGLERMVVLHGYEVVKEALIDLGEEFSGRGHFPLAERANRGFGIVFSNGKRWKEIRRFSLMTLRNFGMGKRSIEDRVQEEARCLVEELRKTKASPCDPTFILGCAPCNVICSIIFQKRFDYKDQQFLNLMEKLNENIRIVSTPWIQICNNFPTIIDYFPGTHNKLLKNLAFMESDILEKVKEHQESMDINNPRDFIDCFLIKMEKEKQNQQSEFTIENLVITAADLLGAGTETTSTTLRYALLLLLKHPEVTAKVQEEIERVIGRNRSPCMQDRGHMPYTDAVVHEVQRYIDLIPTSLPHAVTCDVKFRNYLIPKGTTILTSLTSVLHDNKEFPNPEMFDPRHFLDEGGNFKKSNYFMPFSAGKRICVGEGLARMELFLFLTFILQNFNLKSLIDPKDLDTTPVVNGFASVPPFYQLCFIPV
Protocol: as §3

[5] = biological target: T3, CYP 3A4 (Homo sapiens, UniProt P08684); experiment: CYP inhibition in human liver microsome; format: in vitro ADME; details: human liver microsomes, substrate midazolam (2 μM); compounds diluted 1:3 starting at 50 μM; read-out: IC50 in CYP isozyme 3A4
T3 construct: from tissue; host or cells: human liver microsomes
T3 sequence (P08684 whole entry): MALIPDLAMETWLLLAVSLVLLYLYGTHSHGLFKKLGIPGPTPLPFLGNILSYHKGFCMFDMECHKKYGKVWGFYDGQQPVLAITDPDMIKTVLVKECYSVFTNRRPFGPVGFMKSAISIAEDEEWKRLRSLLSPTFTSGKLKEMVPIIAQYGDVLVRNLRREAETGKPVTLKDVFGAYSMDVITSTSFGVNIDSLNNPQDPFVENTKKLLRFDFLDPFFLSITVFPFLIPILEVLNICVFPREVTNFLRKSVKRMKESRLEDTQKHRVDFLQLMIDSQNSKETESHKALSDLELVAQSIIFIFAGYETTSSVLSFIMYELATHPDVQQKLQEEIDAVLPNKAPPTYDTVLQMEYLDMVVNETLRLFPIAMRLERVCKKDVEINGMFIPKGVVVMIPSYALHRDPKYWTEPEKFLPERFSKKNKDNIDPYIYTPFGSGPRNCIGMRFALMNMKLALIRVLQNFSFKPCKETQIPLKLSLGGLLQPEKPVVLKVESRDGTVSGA
Protocol: as §3

[6] = Metabolic stability in liver microsomes; format: in vitro ADME; details: compound 1 μM; for metabolic stability (halftime in minutes), Dog: Beagle dog liver microsomes; for metabolic stability (halftime in minutes), Mouse: CD-1 mouse liver microsomes; for metabolic stability (halftime in minutes), Monkey: Cynomolgus monkey liver microsomes; for metabolic stability (halftime in minutes), Rat: SD rat liver microsomes
Protocol: The metabolic stability was examined in human, rat, mouse, dog and cynomolgus monkey liver microsomes. Compound (1 μM) was mixed with diluted liver microsomes from each of the 5 species and a small aliquot was taken at 0, 5, 10, 20, 30 and 60 minutes for HPLC MS/MS analysis. Intrinsic clearance and half-life were calculated.

[7] = Metabolic stability in human hepatocytes; format: in vitro ADME; details: cryopreserved human hepatocytes 0.5 million/mL, compound 1 μM
Protocol: The metabolic stability was examined in cryopreserved human hepatocytes. Compound (1 μM) was mixed with human hepatocytes at 0.5 million/mL, and a small aliquot was taken at 0, 15, 30, 60 and 90 minutes for LC/MS/MS analysis. Intrinsic clearance and half-time were calculated.

[8] = Pharmacokinetics in beagle dogs; format: in vivo; details: male, dog, plasma, iv, I.V. (1 mg/kg)
[9] = Pharmacokinetics in cynomolgus monkeys; format: in vivo; details: male, cynomolgus monkey, plasma, iv, I.V. (1 mg/kg)

| AUC [1] | Cmax [1] | half-life [1] | AUC [2] | Cmax [2] | bioavailability [2] | half-life [2] | IC50 [3] | IC50 [4] | IC50 [5] | metabolic stability (halftime in minutes), Dog [6] | metabolic stability (halftime in minutes), Mouse [6] | metabolic stability (halftime in minutes), Monkey [6] | metabolic stability (halftime in minutes), Rat [6] | metabolic stability (halftime in minutes), Human [6] | metabolic stability (halftime in minutes), Human [7] | AUC [8] | C0 [8] | clearance [8] | half-life [8] | Compound | other results |
| --- | --- | --- | --- | --- | --- | --- | --- | --- | --- | --- | --- | --- | --- | --- | --- | --- | --- | --- | --- | --- | --- |
| 2620 ± 1920 ng·h/mL | 477 ± 250 ng/mL | 3.85 ± 1.3 h | 900 ± 305 ng·h/mL | 165 ± 40 ng/mL | 40.7 ± 14% | 3.99 ± 0.89 h | > 50 µM | > 50 µM | > 50 µM | >145 min | 58.5 min | 21.3 min | >145 min | 75.4 min | >216.8 min | 2190 ± 378 ng·h/mL | 786 ± 62 ng/mL | 7.68 ± 1.2 mL/min/kg | 3.35 ± 0.6 h | CCn1nc2ncc(N3CC4(CN(C(=O)C5CCOCC5)C4)C3)cc2c1N(C)c1nc(-c2ccc(F)cc2)c(C#N)s1 [Compound 118, 2-((2-ethyl-5-(6-(tetrahydro-2H-pyran-4-carbonyl)-2,6-diazaspiro[3.3]heptan-2-yl)-2H-pyrazolo[3,4-b]pyridin-3-yl)(methyl)amino)-4-(4-fluorophenyl)thiazole-5-carbonitrile] | AUC [9]: 2640 ± 473 ng·h/mL; C0 [9]: 993 ± 8.6 ng/mL; clearance [9]: 6.06 ± 1.2 mL/min/kg; half-life [9]: 6.59 ± 1.5 h |
| 2050 ± 884 ng·h/mL | 268 ± 76 ng/mL | 3.29 ± 0.25 h | 4020 ± 549 ng·h/mL | 425 ± 68 ng/mL | 36.1 ± 4.9% | 4.69 ± 0.17 h | > 50 µM | 45.5 µM | > 50 µM | 71.9 min | 14.0 min | 9.8 min | 96.6 min | 24.5 min | >216.8 min | 10700 ± 1810 ng·h/mL | 2290 ± 172 ng/mL | 1.53 ± 0.27 mL/min/kg | 5.06 ± 0.85 h | CCc1nn2cc(F)c(N3CCN(CC(=O)N4CC(O)C4)CC3)cc2c1N(C)c1nc(-c2ccc(F)cc2)c(C#N)s1 [Example 101, 2-[[2-ethyl-6-fluoro-5-[4-[2-(3-hydroxyazetidin-1-yl)-2-oxo-ethyl]piperazin-1-yl]pyrazolo[1,5-a]pyridin-3-yl]-methyl-amino]-4-(4-fluorophenyl)thiazole-5-carbonitrile] | AUC [9]: 1990 ± 92 ng·h/mL; C0 [9]: 1220 ± 166 ng/mL; clearance [9]: 8.21 ± 0.38 mL/min/kg; half-life [9]: 1.82 ± 0.1 h |
| 7520 ± 498 ng·h/mL | 732 ± 95 ng/mL | 5.53 ± 0.2 h | 2190 ± 325 ng·h/mL | 192 ± 26 ng/mL | 33.9 ± 5% | 20.4 ± 6.1 h | 13.9 µM | 11.9 µM | > 50 µM | 69.8 min | 17.9 min | 6.4 min | 67.3 min | 13.4 min | 76.6 min | 6480 ± 703 ng·h/mL | 1070 ± 34.4 ng/mL | 1.85 ± 0.28 mL/min/kg | 14.8 ± 0.57 h | CCc1nn2cc(F)c(N3CC4(CN(C(=O)[C@H]5CCOC5)C4)C3)cc2c1N(C)c1nc(-c2ccc(F)cc2)c(C#N)s1 [Example 102, 2-[[2-ethyl-6-fluoro-5-[2-[(3S)-tetrahydrofuran-3-carbonyl]-2,6-diazaspiro[3.3]heptan-6-yl]pyrazolo[1,5-a]pyridin-3-yl]-methyl-amino]-4-(4-fluorophenyl)thiazole-5-carbonitrile] |  |
| 1260 ± 209 ng·h/mL | 889 ± 173 ng/mL | 3.15 ± 1.8 h | 5760 ± 672 ng·h/mL | 1130 ± 229 ng/mL | 66.2 ± 7.5% | 3.04 ± 0.77 h | > 50 µM | 40.2 µM | 13.5 µM | 32.1 min | 10.3 min | 4.8 min | 9.2 min | 10.8 min | 117.9 min | 8650 ± 328 ng·h/mL | 5120 ± 1380 ng/mL | 1.91 ± 0.07 mL/min/kg | 2.11 ± 1.23 h | CCc1nc2c(C)cc(N3CCN(CC(=O)N4CC(O)C4)CC3)cn2c1N(C)c1nc(-c2ccc(F)cc2)c(C#N)s1 [GLPG1690] | AUC [9]: 2770 ± 246 ng·h/mL; C0 [9]: 4210 ± 1150 ng/mL; clearance [9]: 6.02 ± 0.51 mL/min/kg; half-life [9]: 1.41 ± 0.19 h |
